pIC50: −log10 of the molar value. Read-outs that look alike come from different tables or passages of the source.
What was measured:
[1] = XTT cytotoxicity assay in MT-2 cells; format: cell-based; conditions: human, cell type not given
Method: Briefly, for MT-2 cells, 100 μL of small molecule at graded concentrations was added to an equal volume of cells (5×10^4 cells/ml) in 96-well plates followed by incubation at 37° C. for 4 days, which ran parallel to the neutralization assay in MT-2 (except medium was added instead of virus). In the case of PBMC, 2.5×10^5 cells/mL were used and the cytotoxicity was measured after 7 days. After addition of XTT (PolySciences, Inc.), the soluble intracellular formazan was quantitated calorimetrically at 450 nm 4 hours later with a reference at 620 nm. The CC50 values were calculated.

[2] = tested on: HIV-1; experiment: Inhibition of HIV-1 infectivity (p24 ELISA) in MT-2 cells, laboratory-adapted HIV-1 strains; format: cell-based; conditions: Human immunodeficiency virus 1, MT2, 96 h, MT-2 cells, p24 ELISA day 4
Method: AZT was used as a positive control in the infectivity assays. In brief, 1×10^4 MT-2 cells (lymphocytes) were infected with HIV-1 at 100 TCID50 (50% tissue culture infective dose, 0.01 MOI [multiplicity of infection]) in 200 μL RPMI 1640 medium containing 10% FBS in the presence or absence of small molecules at graded concentrations overnight. The culture supernatants were then removed and fresh media containing freshly prepared test compounds were added. On the fourth day post-infection, 100 μL of culture supernatants were collected from each well, mixed with equal volume of 5% TRITON X-100® and tested for p24 antigen by ELISA®.

[3] = Table 1, formula I, read-out: CC50 (concentration that causes 50% cytotoxicity)
[4] = read-out: IC50 (concentration that provides 50% inhibition of HIV-1 p24), Table 1, formula I
[5] = Table 2, formula II, read-out: CC50

Structure (SMILES) | CC50 [1, 3] [µM] | pIC50 [2, 4] | CC50 [1, 5] [µM] | pIC50 ([2]; Table 2, formula II)
COc1ccccc1C(=O)N(Cc1ccco1)Cc1cc2ccc(C)cc2[nH]c1=O [NYAD-S29] | > 10 | < 5.00 |  | 
Cc1cccc2cc(CN(Cc3ccco3)C(=O)c3cccnc3)c(=O)[nH]c12 [NYAD-S30] | > 10 | < 5.00 |  | 
Cc1ccccc1C(=O)N(Cc1ccco1)Cc1cc2cccc(C)c2[nH]c1=O [NYAD-S31] | > 10 | < 5.00 |  | 
Cc1cccc2cc(CN(Cc3ccco3)C(=O)c3ccccc3F)c(=O)[nH]c12 [NYAD-S32] | > 10 | < 5.00 |  | 
Cc1cccc2cc(CN(Cc3ccco3)C(=O)c3ccc(F)cc3)c(=O)[nH]c12 [NYAD-S33] | > 10 | < 5.00 |  | 
Cc1ccc2cc(CN(Cc3ccco3)C(=O)c3ccccc3F)c(=O)[nH]c2c1 [NYAD-S34] | > 10 | < 5.00 |  | 
Cc1cccc2cc(CN(Cc3ccccc3)C(=O)c3cccc(Cl)c3)c(=O)[nH]c12 [NYAD-S35] | > 10 | < 5.00 |  | 
Cc1ccc2[nH]c(=O)c(CN(Cc3ccco3)C(=O)c3ccc(Br)cc3)cc2c1 [NYAD-S36] | > 10 | > 5.00 |  | 
Cc1ccc2[nH]c(=O)c(CN(Cc3ccccc3)C(=O)c3ccco3)cc2c1 [NYAD-S37] | > 10 | > 5.00 |  | 
Cc1cccc(C(=O)N(Cc2ccco2)Cc2cc3ccc(C)cc3[nH]c2=O)c1 [NYAD-S40] | > 10 | < 5.00 |  | 
COc1ccc(C(=O)N(Cc2ccco2)Cc2cc3cc(C)ccc3[nH]c2=O)cc1OC [NYAD-S41] | > 10 | < 5.00 |  | 
Cc1ccc2[nH]c(=O)c(CN(CC3CCCO3)C(=O)c3ccco3)cc2c1 (centres unmarked) [NYAD-S42] | > 10 | < 5.00 |  | 
Cc1cc2cc(CN(Cc3ccco3)C(=O)C3CCCCC3)c(=O)[nH]c2cc1C [NYAD-S43] | > 10 | < 5.00 |  | 
Cc1ccc2[nH]c(=O)c(CN(Cc3ccco3)C(=O)c3cccs3)cc2c1 [NYAD-S44] | > 10 | < 5.00 |  | 
Cc1ccc2[nH]c(=O)c(CN(Cc3ccco3)C(=O)c3ccccc3)cc2c1 [NYAD-S45] | > 10 | > 5.00 |  | 
Cc1ccc2[nH]c(=O)c(CN(Cc3cccnc3)C(=O)c3ccco3)cc2c1 [NYAD-S46] | > 10 | < 5.00 |  | 
Cc1ccc2cc(CN(CC3CCCO3)C(=O)c3ccco3)c(=O)[nH]c2c1C (centres unmarked) [NYAD-S47] | > 10 | < 5.00 |  | 
Cc1ccc2cc(CN(Cc3ccccc3)C(=O)c3ccco3)c(=O)[nH]c2c1C [NYAD-S48] | > 10 | < 5.00 |  | 
Cc1ccc2[nH]c(=O)c(CN(Cc3ccco3)C(=O)c3ccccc3F)cc2c1 [NYAD-S49] | > 10 | < 5.00 |  | 
Cc1cccc(C(=O)N(Cc2ccco2)Cc2cc3cc(C)ccc3[nH]c2=O)c1 [NYAD-S50] | > 10 | < 5.00 |  | 
Cc1cccc2cc(CN(Cc3ccco3)C(=O)N3CCOCC3)c(=O)[nH]c12 [NYAD-S51] | > 10 | < 5.00 |  | 
Cc1ccc(NCC(O)Cn2c3ccccc3n3c(=O)cc(C)c(C#N)c23)cc1 (centres unmarked) [NYAD-S52] |  |  | > 10 | < 5.00
COc1ccc(NCC(O)Cn2c3ccccc3n3c(=O)cc(C)c(C#N)c23)cc1 (centres unmarked) [NYAD-S53] |  |  | > 10 | < 5.00
CCC1CCCCN1CC(O)Cn1c2ccccc2n2c(=O)cc(C)c(C#N)c12 (centres unmarked) [NYAD-S54] |  |  | > 10 | < 5.00
Cc1ccc(NCC(O)Cn2c3ccccc3n3c(=O)cc(C)c(C#N)c23)cc1C (centres unmarked) [NYAD-S55] |  |  | > 10 | < 5.00
CCOc1ccc(NCC(O)Cn2c3ccccc3n3c(=O)cc(C)c(C#N)c23)cc1 (centres unmarked) [NYAD-S56] |  |  | > 10 | < 5.00

Structure (SMILES) | CC50 [1, 3] [µM] | pIC50 [2, 4] | CC50 [1, 5] [µM] | pIC50 ([2]; Table 2, formula II)
Cc1ccc(NCC(O)Cn2c3ccccc3n3c(=O)cc(C)c(C#N)c23)cc1Cl (centres unmarked) [NYAD-S57] |  |  | > 10 | < 5.00
Cc1cc(C)cc(NCC(O)Cn2c3ccccc3n3c(=O)cc(C)c(C#N)c23)c1 (centres unmarked) [NYAD-S58] |  |  | > 10 | < 5.00
Cc1cc(=O)n2c3ccccc3n(CC(O)CNc3ccc(C(C)C)cc3)c2c1C#N (centres unmarked) [NYAD-S59] |  |  | < 10 | > 5.00
CCc1ccc(NCC(O)Cn2c3ccccc3n3c(=O)cc(C)c(C#N)c23)cc1 (centres unmarked) [NYAD-S60] |  |  | < 10 | < 5.00
COc1ccc2[nH]c(=O)c(CN(Cc3ccco3)C(=O)c3ccccc3C)cc2c1 [NYAD-S61] | > 10 | < 5.00 |  | 
Cc1cc(=O)n2c3ccccc3n(CC(O)CCl)c2c1C#N (centres unmarked) [NYAD-S62] |  |  | > 10 | < 5.00
Cc1cc(=O)n2c3ccccc3n(CC(O)CNc3ccc(Cl)cc3)c2c1C#N (centres unmarked) [NYAD-S63] |  |  | > 10 | < 5.00
Cc1cc(=O)n2c3ccccc3n(CC(O)CN3CCC(C)CC3)c2c1C#N (centres unmarked) [NYAD-S64] |  |  | > 10 | < 5.00
COc1cccc(NCC(O)Cn2c3ccccc3n3c(=O)cc(C)c(C#N)c23)c1 (centres unmarked) [NYAD-S65] |  |  | > 10 | < 5.00
Cc1cc(C)c2[nH]c(=O)c(CN(Cc3ccco3)C(=O)c3ccccc3)cc2c1 [NYAD-S80] | > 10 | < 5.00 |  | 
Cc1ccc2cc(CN(Cc3ccco3)C(=O)c3cccc(F)c3)c(=O)[nH]c2c1 [NYAD-S81] | > 10 | > 5.00 |  | 
Cc1cc(C)c2[nH]c(=O)c(CN(Cc3ccco3)C(=O)c3ccc(Br)cc3)cc2c1 [NYAD-S82] | > 10 | < 5.00 |  | 
CCOc1ccc(C(=O)N(Cc2ccco2)Cc2cc3cc(OC)c(OC)cc3[nH]c2=O)cc1 [NYAD-S84] | > 10 | < 5.00 |  | 
Cc1ccc(C)c2[nH]c(=O)c(CN(Cc3ccco3)C(=O)c3ccc(Br)cc3)cc12 [NYAD-S85] | > 10 | < 5.00 |  | 
CCOc1ccc2[nH]c(=O)c(CN(Cc3ccco3)C(=O)c3ccccc3Cl)cc2c1 [NYAD-S89] | > 10 | < 5.00 |  | 
Cc1ccc2[nH]c(=O)c(CN(Cc3ccco3)C(=O)c3ccccc3Br)cc2c1 [NYAD-S90] | > 10 | < 5.00 |  | 
Cc1ccc2[nH]c(=O)c(CN(Cc3ccco3)C(=O)c3ccc(C(C)(C)C)cc3)cc2c1 [NYAD-S91] | > 10 | < 5.00 |  | 
Cc1ccc(C(=O)N(Cc2ccco2)Cc2cc3ccc(C)cc3[nH]c2=O)cc1 [NYAD-S92] | > 10 | < 5.00 |  | 
CCOc1ccc2[nH]c(=O)c(CN(Cc3ccco3)C(=O)c3ccc(Br)cc3)cc2c1 [NYAD-S94] | > 10 | < 5.00 |  | 
CCOc1ccc2[nH]c(=O)c(CN(Cc3ccc(F)cc3)C(=O)c3ccco3)cc2c1 [NYAD-S95] | > 10 | < 5.00 |  | 
Cc1ccc2[nH]c(=O)c(CN(Cc3ccc(F)cc3)C(=O)c3ccco3)cc2c1 [NYAD-S96] | > 10 | < 5.00 |  | 
CCOc1ccc2[nH]c(=O)c(CN(Cc3ccco3)C(=O)c3cccc(F)c3)cc2c1 [NYAD-S97] | < 10 | < 5.00 |  | 
Cc1ccc2[nH]c(=O)c(CN(Cc3ccc(Cl)cc3)C(=O)c3ccccc3)cc2c1 [NYAD-S98] | > 10 | < 5.00 |  | 
CCc1ccc2[nH]c(=O)c(CN(Cc3ccco3)C(=O)c3ccccc3)cc2c1 [NYAD-S99] | > 10 | < 5.00 |  | 
COc1ccc2[nH]c(=O)c(CN(Cc3ccco3)C(=O)c3ccc(C)cc3)cc2c1 [NYAD-S100] | > 10 | > 5.00 |  | 
Cc1cc(C)c2[nH]c(=O)c(CN(Cc3ccco3)C(=O)c3ccco3)cc2c1 [NYAD-S101] | > 10 | < 5.00 |  | 

— US8299093B2, “Small molecule inhibitors of retroviral assembly and maturation” (New York Blood Center, Inc., priority 2008, dated 2012)
